According to patent publication US20250188059A1, “NOVEL COMPOUND AND USE THEREOF FOR INHIBITING CHECKPOINT KINASE 2” (ARUM THERAPEUTICS INC, priority 2022, published 2025):
Like-named read-outs stand apart in the source and are kept apart here.

Experiments:
[1] = test system: human breast cancer cell line MCF-7; assay: Cancer cell growth inhibition test (CellTiter-Glo); format: cell-based; conditions: MCF-7, 72 hours
Experimental: The human breast cancer cell line MCF-7 was treated with trypsin and harvested. The number of cells was counted, and about 3000 cells/80 μl per well were inoculated into a 96 well plate (Corning) and then incubated in a 37° C. incubator for 24 hours. Thereafter, the example compounds were diluted in a culture solution at various concentrations, and each well was treated with 20 μl and stored in a cell culture incubator for 72 hours. In the case of the group administered in combination, the example compounds and cisplatin or doxorubicin were diluted in a culture solution at various concentrations, and each well was treated with 20 μl. After 72 hours, each well was treated with 30 μl of CellTiter-Glo solution (Promega), and the luminescence was read on a Victor3 multi label reader (PerkinElmer).
Relative viability (%)=(value of each test well/value of well treated with DMSO alone)×100
The results obtained for each concentration for each example compound were the average values obtained from three wells, and PRIZM software was used for analysis of the results.

Chk1 kinase = Chk1 kinase (Homo sapiens (Human), UniProt O14757); assay: Chk1 kinase inhibitory activity (LanthaScreen TR-FRET); format: biochemical; conditions: graded
Sequence of Chk1 kinase (O14757 whole entry): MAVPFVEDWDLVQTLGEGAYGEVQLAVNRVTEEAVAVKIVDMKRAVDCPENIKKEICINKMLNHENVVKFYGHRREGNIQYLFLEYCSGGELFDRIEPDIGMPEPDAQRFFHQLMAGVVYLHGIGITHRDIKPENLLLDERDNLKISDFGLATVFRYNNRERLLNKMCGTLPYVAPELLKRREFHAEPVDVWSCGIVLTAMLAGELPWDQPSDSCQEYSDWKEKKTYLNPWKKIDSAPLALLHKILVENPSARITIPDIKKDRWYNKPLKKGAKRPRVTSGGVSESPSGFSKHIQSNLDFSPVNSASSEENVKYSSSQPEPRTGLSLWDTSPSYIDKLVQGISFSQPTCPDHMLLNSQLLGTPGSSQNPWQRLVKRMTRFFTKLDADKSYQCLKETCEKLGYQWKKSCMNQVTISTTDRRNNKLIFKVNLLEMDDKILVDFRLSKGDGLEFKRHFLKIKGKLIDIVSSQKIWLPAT
Experimental: (§1) The compounds of Examples 1 to 66 were diluted at various concentrations and transferred to a 384-well plate by 5 μl, and 10 μl of a mixed solution (2×) of Chk1 kinase (Thermo, P3040) or Chk2 kinase (Thermo, PV3367) and a substrate (Thermo, PV3508) was added to wells treated with the compounds. 5 μl of an ATP solution at a 4× concentration was added to the test well and reacted at room temperature for 1 hour. 20 μl of LanthaScreen Terbium-CREB p-Ser 133 antibody (Thermo, PV3542) was added to the reaction well and incubated at room temperature for 30 minutes. Conversion data was measured by an EnVision 2014 multi label reader (PerkinElmer). The activity for each concentration was determined by the ratio (FRET ratio=FR) of the value obtained by dividing the value at 520 nm by the value at 490 nm among the emission wavelength values for each wavelength (Em520/Em490). The results obtained for each concentration of the compounds were the average values obtained in two wells, and the IC50 values of the compounds were calculated using PRIZM software for analysis of the results. IC50 in Table 7 was graded as follows.

Chk2 kinase = Chk2 kinase (Homo sapiens (Human), UniProt O96017); assay: Chk2 kinase inhibitory activity (LanthaScreen TR-FRET); format: biochemical; conditions: graded
Sequence of Chk2 kinase (O96017 whole entry): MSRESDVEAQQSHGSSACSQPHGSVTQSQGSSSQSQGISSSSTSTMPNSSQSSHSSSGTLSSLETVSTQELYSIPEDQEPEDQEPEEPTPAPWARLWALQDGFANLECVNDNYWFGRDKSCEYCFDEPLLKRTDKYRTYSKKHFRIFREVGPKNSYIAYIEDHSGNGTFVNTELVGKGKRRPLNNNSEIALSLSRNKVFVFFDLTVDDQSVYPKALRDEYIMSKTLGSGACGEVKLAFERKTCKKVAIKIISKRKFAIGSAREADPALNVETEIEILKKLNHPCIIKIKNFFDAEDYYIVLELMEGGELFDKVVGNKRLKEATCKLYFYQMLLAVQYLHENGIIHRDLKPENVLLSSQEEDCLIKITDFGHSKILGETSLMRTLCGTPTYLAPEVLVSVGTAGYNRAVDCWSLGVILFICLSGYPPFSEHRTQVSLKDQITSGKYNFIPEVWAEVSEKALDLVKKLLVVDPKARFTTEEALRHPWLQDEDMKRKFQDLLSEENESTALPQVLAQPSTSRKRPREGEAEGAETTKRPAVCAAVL
Experimental: as §1

[2] = Homo sapiens, MCF7, 72 h, graded, read-out: Celltiter glo analysis (IC50)
[3] = Homo sapiens, MCF7, 72 h, alone, read-out: Administered alone (IC50)
[4] = combination with cisplatin, read-out: Administered in combination with cisplatin (IC50)
[5] = combination with doxorubicin, read-out: Administered in combination with doxorubicin (IC50)

| IC50 [1, 2] [nM] | IC50 (Chk1 kinase) [nM] | IC50 (Chk2 kinase) [nM] | IC50 [1, 3] [nM] | IC50 [1, 4] [nM] | IC50 [1, 5] [nM] | SMILES |
| --- | --- | --- | --- | --- | --- | --- |
| 10000 to 100000 | 10 to 100 | ≤ 10 | – | – | – | Cn1cc(-c2cccc(-c3cnc(N)c(C(=O)N[C@H]4CCCNC4)n3)c2)cn1 [Example 16, (S)-3-amino-6-(3-(1-methyl-1H-pyrazol-4-yl)phenyl)-N-(piperidin-3-yl)pyrazine-2-carboxamide] |
| 10000 to 100000 | > 1000 | ≤ 10 | – | – | – | CC1(C)Cc2c(-c3nccc(-c4cnc(N)c(C(=O)NC5CNC[C@@H](F)C5)n4)n3)cnn2C1 (stereo partly drawn) [Example 64, 3-amino-6-(2-(5,5-dimethyl-5,6-dihydro-4H-pyrrolo[1,2-b]pyrazol-3-yl)pyrimidin-4-yl)-N-((3S,5S)-5-fluoropiperidin-3-y)pyrazine-2-carboxamide] |
| 10000 to 100000 | > 1000 | 10 to 100 | 48100 | 3440 | 670 | Nc1ncc(-c2cc(-c3cnn(CC(F)(F)F)c3)ncc2F)nc1C(=O)N[C@@H]1CNCC(F)(F)C1 [Example 4, (S)-3-amino-N-(5,5-difluoropiperidin-3-yl)-6-(5-fluoro-2-(1-(2,2,2-trifluoroethyl)-1H-pyrazol-4-yl)pyridin-4-yl)pyrazine-2-carboxamide] |
| > 100000 | > 1000 | 10 to 100 | – | – | – | Cc1ccc(-c2cnn(CC(C)(C)O)c2)cc1-c1cnc(N)c(C(=O)N[C@@H]2CNC[C@@H](F)C2)n1 [Example 37, 3-amino-N-((3S,5S)-5-fluoropiperidin-3-yl)-6-(5-(1-(2-hydroxy-2-methylpropyl)-1H-pyrazol-4-yl)-2-methylphenyl) pyrazine-2-carboxamide] |
| ≤ 10000 | > 1000 | 10 to 100 | – | – | – | CC1(C)Cc2c(-c3cccc(-c4cnc(N)c(C(=O)N[C@@H]5CNCC(F)(F)C5)n4)c3)cnn2C1 [Example 59] |
| 10000 to 100000 | 100 to 1000 | 10 to 100 | – | – | – | Nc1ncc(-c2cc(-c3cnn(C4CC4)c3)ccc2F)nc1C(=O)N[C@H]1CCCNC1 [Example 31, (S)-3-amino-6-(5-(1-cyclopropyl-1H-pyrazol-4-yl)-2-fluorophenyl)-N-(piperidin-3-yl)pyrazine-2-carboxamide] |
| 10000 to 100000 | 10 to 100 | ≤ 10 | – | – | – | Nc1ncc(-c2ccnc(-c3cnn(CC(F)(F)F)c3)c2)nc1C(=O)N[C@H]1CCCNC1 [Example 21, (S)-3-amino-N-(piperidin-3-yl)-6-(2-(1-(2,2,2-trifluoroethyl)-1H-pyrazol-4-yl)pyridin-4-yl)pyrazine-2-carboxamide] |
| 10000 to 100000 | 100 to 1000 | ≤ 10 | – | – | – | CC1(C)Cc2c(-c3cccc(-c4cnc(N)c(C(=O)N[C@@H]5CNC[C@@H](F)C5)n4)c3)cnn2C1 [Example 45, 3-amino-6-(3-(5,5-dimethyl-5,6-dihydro-4H-pyrrolo[1,2-b]pyrazol-3-yl)phenyl)-N-((3S,5S)-5-fluoropiperidin-3-yl)pyrazine-2-carboxamide] |
| 10000 to 100000 | 10 to 100 | ≤ 10 | – | – | – | CC1(C)Cc2c(-c3cccc(-c4cnc(N)c(C(=O)N[C@H]5CCCNC5)n4)c3)cnn2C1 [Example 42, (S)-3-amino-6-(3-(5,5-dimethyl-5,6-dihydro-4H-pyrrolo[1,2-b]pyrazol-3-yl)phenyl)-N-(piperidin-3-yl) pyrazine-2-carboxamide] |
| > 100000 | 10 to 100 | ≤ 10 | – | – | – | CC(C)(O)Cn1cc(-c2cccc(-c3cnc(N)c(C(=O)N[C@H]4CCCNC4)n3)c2)cn1 [Example 30, (S)-3-amino-6-(3-(1-(2-hydroxy-2-methylpropyl)-1H-pyrazol-4-yl)phenyl)-N-(piperidin-3-yl)pyrazine-2-carboxamide] |
| > 100000 | 100 to 1000 | 10 to 100 | – | – | – | N#CCn1cc(-c2cccc(-c3cnc(N)c(C(=O)N[C@@H]4CNC[C@@H](F)C4)n3)c2)cn1 [Example 26, 3-amino-6-(3-(1-(cyanomethyl)-1H-pyrazol-4-yl)phenyl)-N-((3S,5S)-5-fluoropiperidin-3-yl) pyrazine-2-carboxamide] |
| > 100000 | > 1000 | 10 to 100 | – | – | – | N#CCn1cc(-c2cccc(-c3cnc(N)c(C(=O)N[C@@H]4CNCC[C@H]4O)n3)c2)cn1 [Example 25, 3-amino-6-(3-(1-(cyanomethyl)-1H-pyrazol-4-yl)phenyl)-N-((3R,4R)-4-hydroxypiperidin-3-yl)pyrazine-2-carboxamide] |
| ≤ 10000 | 100 to 1000 | ≤ 10 | 11800 | 2270 | 3050 | Nc1ncc(-c2ccnc(-c3cnn(CC(F)(F)F)c3)c2)nc1C(=O)N[C@@H]1CNC[C@@H](F)C1 [Example 15, 3-amino-N-((3S,5S)-5-fluoropiperidin-3-yl)-6-(2-(1-(2,2,2-trifluoroethyl)-1H-pyrazol-4-yl)pyridin-4-yl)pyrazine-2-carboxamide] |
| ≤ 10000 | ≤ 10 | 10 to 100 | – | – | – | CC1(C)Cc2c(-c3ccc(F)c(-c4cnc(N)c(C(=O)N[C@@H]5CNC[C@@H](F)C5)n4)c3)cnn2C1 [Example 44, 3-amino-6-(5-(5,5-dimethyl-5,6-dihydro-4H-pyrrolo [1,2-b]pyrazol-3-yl)-2-fluorophenyl)-N-((3S,5S)-5-fluoropiperidin-3-yl)pyrazine-2-carboxamide] |
| 10000 to 100000 | > 1000 | 10 to 100 | – | – | – | CC1(C)Cc2c(-c3ccc(F)c(-c4cnc(N)c(C(=O)N[C@H]5CCC6(CC6)NC5)n4)c3)cnn2C1 [Example 46, (S)-3-amino-6-(5-(5,5-dimethyl-5,6-dihydro-4H-pyrrolo[1,2-b]pyrazol-3-yl)-2-fluorophenyl)-N-(4-azaspiro[2.5]octan-6-yl)pyrazine-2-carboxamide] |
| 10000 to 100000 | > 1000 | 10 to 100 | – | – | – | CC(C)(O)Cn1cc(-c2ccc(F)c(-c3cnc(N)c(C(=O)N[C@@H]4CNC[C@@H](F)C4)n3)c2)cn1 [Example 35, 3-amino-6-(2-fluoro-5-(1-(2-hydroxy-2-methylpropyl)-1H-pyrazol-4-yl)phenyl)-N-((3S,5S)-5-fluoropiperidin-3-yl)pyrazine-2-carboxamide] |
| > 100000 | 10 to 100 | 10 to 100 | – | – | – | N#CCn1cc(-c2cccc(-c3cnc(N)c(C(=O)N[C@H]4CCCNC4)n3)c2)cn1 [Example 27, (S)-3-amino-6-(3-(1-(cyanomethyl)-1H-pyrazol-4-yl)phenyl)-N-(piperidin-3-yl)pyrazine-2-carboxamide] |
| 10000 to 100000 | > 1000 | > 1000 | – | – | – | CC(C)(O)Cn1cc(-c2ccc(F)c(-c3cnc(N)c(C(=O)N[C@@H]4CNCC(F)(F)C4)n3)c2)cn1 [Example 36, (S)-3-amino-N-(5,5-difluoropiperidin-3-yl)-6-(2-fluoro-5-(1-(2-hydroxy-2-methylpropyl)-1H-pyrazol-4-yl)phenyl)pyrazine-2-carboxamide] |
| 10000 to 100000 | 100 to 1000 | ≤ 10 | – | – | – | CC1(C)Cc2c(-c3ccc(F)c(-c4cnc(N)c(C(=O)N[C@H]5CCCNC5)n4)c3)cnn2C1 [Example 43, (S)-3-amino-6-(5-(5,5-dimethyl-5,6-dihydro-4H-pyrrolo[1,2-b]pyrazol-3-yl)-2-fluorophenyl)-N-(piperidin-3-yl)pyrazine-2-carboxamide] |
| 10000 to 100000 | > 1000 | > 1000 | – | – | – | Cc1ccc(-c2cnn(CC(C)(C)O)c2)cc1-c1cnc(N)c(C(=O)N[C@@H]2CNCC(F)(F)C2)n1 [Example 38, (S)-3-amino-N-(5,5-difluoropiperidin-3-yl)-6-(5-(1-(2-hydroxy-2-methylpropyl)-1H-pyrazol-4-yl)-2-methylphenyl)pyrazine-2-carboxamide] |
| 10000 to 100000 | > 1000 | > 1000 | 33100 | 4580 | 910 | CC(C)(O)Cn1cc(-c2cc(-c3cnc(N)c(C(=O)N[C@@H]4CNCC(F)(F)C4)n3)c(F)cn2)cn1 [Example 32, (S)-3-amino-N-(5,5-difluoropiperidin-3-yl)-6-(5-fluoro-2-(1-(2-hydroxy-2-methylpropyl)-1H-pyrazol-4-yl)pyridin-4-yl)pyrazine-2-carboxamide] |
| > 100000 | > 1000 | ≤ 10 | – | – | – | CC(C)(O)Cn1cc(-c2cccc(-c3cnc(N)c(C(=O)N[C@@H]4CNCC[C@H]4O)n3)c2)cn1 [Example 28, 3-amino-6-(3-(1-(2-hydroxy-2-methylpropyl)-1H-pyrazol-4-yl)phenyl)-N-((3R,4R)-4-hydroxypiperidin-3-yl)pyrazine-2-carboxamide] |
